{"source": "patent US20260200831A1", "about": "“Plant Oil Ceramides, Synthesis Method and Use Thereof” (SHENZHEN DIKEMAN BIOTECHNOLOGY CO., LTD., priority 2022, published 2026)", "key": {"[1]": {"assay": "DPPH free radical scavenging assay", "protocol": "DPPH is 1,1-diphenyl-2-picrylhydrazyl and can be used in antioxidant experiments.\nSamples at corresponding concentrations (50, 100, 200, 400, 800 mg/L) were mixed with […] DPPH and absolute ethanol at a 1:1 volume ratio, respectively. DPPH and absolute ethanol were mixed at a 1:1 volume ratio, reacted at room temperature in the dark for 30 min, and the absorbance was measured at 517 nm. The absorbance of the sample mixed with DPPH is denoted as A1, the absorbance of the sample mixed with absolute ethanol is denoted as A2, and the absorbance of DPPH mixed with absolute ethanol is denoted as A3. The DPPH scavenging rate of the sample is calculated as [1−(A1−A2)/A3]×100%."}, "[2]": {"assay": "Cell migration (scratch) assay, skin barrier repair", "type": "cell-based", "settings": "sample 100 mg/L", "protocol": "Principle: When cells grow to form a confluent monolayer, a scratch tool is used to create a cell-free blank area on the confluent monolayer cells, the cells in the blank area are removed by a mechanical force, and through a period of incubation, the migration of the cells to the cell-free area is observed, and the migration ability of the cells is reflected by measuring the migration distance of the cells.\n• 1. Marking the culture plate. Use a marker pen and ruler to draw evenly spaced horizontal lines (approximately 0.5-1 cm apart) on the back of a 6-well plate, ensuring at least 5 lines cross each well. Avoid thick lines. • 2. Cell seeding. Seed approximately 5×10^5 cells per well (the number varies for varied cells, adjusting based on cell growth rate), and the principle of inoculation is to achieve 100% confluence overnight. • 3. Cell scratching. On the following day, use a pipette tip perpendicular to the cell layer to create scratches along the pre-marked lines on the back of the plate (It is best to use the same tip for all wells). • 4. Cell washing. After the scratching was completed, rinse the cells three times with sterile PBS to remove dislodged cells, leaving a clear visible scratch gap, and then replace with fresh serum-free medium. • 5. Cell culturing and observation. […]"}}}
{"smiles": "CCCCCCCC/C=C\\CCCCCCCC(=O)N[C@@H](CO)[C@H](O)[C@H](O)CCCCCCCCCCCCCC", "note": "[ceramide 3B, oleic acid ceramide]", "values": [{"measurement": "DPPH free radical scavenging rate", "setting": "[1]; 50 mg/L", "value": 7.76, "unit": "%"}, {"measurement": "DPPH free radical scavenging rate", "setting": "[1]; 100 mg/L", "value": 12.82, "unit": "%"}, {"measurement": "DPPH free radical scavenging rate", "setting": "[1]; 200 mg/L", "value": 24.10, "unit": "%"}, {"measurement": "DPPH free radical scavenging rate", "setting": "[1]; 400 mg/L", "value": 29.60, "unit": "%"}, {"measurement": "DPPH free radical scavenging rate", "setting": "[1]; 800 mg/L", "value": 33.16, "unit": "%"}, {"measurement": "healing rate after 24 h", "setting": "[2]", "value": 59.32, "unit": "%"}]}
